Experimental data reported in patent US20030180723A1, “Cloning of novel gene sequences expressed and repressed during winter dormancy in the apical buds of tea ( Camellia sinensis L. (O.) Kuntze) bush” (priority 2001, published 2003).

Test system: dormant apical buds of tea bush
Experiment: Forced break of bud dormancy by GA3 on a winter-dormant tea bush
Type: in vivo, Camellia sinensis L. (O.) Kuntze
Conditions: out of 20 buds; 5 μM in 5% ethanol, applied onto each dormant bud with a paint brush at least 4 times on the same day, December; bud length and perimeter as indicator of growth
Procedure: Above Example 6 identified 4 differentially expressed genes cloned by us. To further correlate these differentially expressed genes with the phenomenon of dormancy, the dormant bush during winter month was forced to break bud dormancy using a plant growth regulator gibberrellic acid (hereinafter referred to GA3). GA3 was dissolved in 5% ethanol to yield a final concetration of 5 μM. The solution was applied onto each dormant bud with the help of a paint brush at least 4 times on the same day during the month of December. Bud length and its perimeter was recorded regularly as an indicator of its growth. […] These were termed as forced ND apical buds. These were collected and stored as mentioned in Example 1 and used for the purpose of RNA isolation to be used in northern analysis.

C=C1C[C@]23C[C@@]1(O)CC[C@H]2[C@@]12C=C[C@H](O)[C@@](C)(C(=O)O1)[C@H]2[C@@H]3C(=O)O [GA3, gibberrellic acid]
buds that showed increase in growth (dormancy break): 10 buds
